Experimental data taken from ChEMBL document CHEMBL1201862, “PubChem BioAssay data set” (2004).
Active and inactive are the calls of the source.

Legend:
[1] = microbe, parasite or virus in culture; assay type: functional; conditions: Mycobacterium tuberculosis
[2] = CEM21 lymphoblast cell cytotoxicity, dose response, cytotoxicity control for viral fusion inhibitor project, CellTiter-Glo luminescence, cherry-picked (AID 652042); assay type: functional, cell-based;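 also: potency for signal decrease meaning cytotoxicity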
cells = assay type: functional
[3] = off-target signal loss in HeLa-CEM21 co-culture – HeLa F-luc CTL cells, cherry-picked, counter-screen for HIV-1 Env fusion inhibitor project, dose response (AID 652040); assay type: functional, cell-based;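 also: potency for signal decrease marking cytotoxic or nonspecific inhibition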
[4] = HeLa cell cytotoxicity, dose response, cytotoxicity control for MgcRacGAP inhibitor project (AID 624300); assay type: functional
[5] = THP-1 cell cytotoxicity, dose response, cytotoxicity control for non-replicating M. tuberculosis project (AID 489025); assay type: functional
[6] = target: T1, Rac GTPase-activating protein 1 (Homo sapiens, UniProt Q9H0H5); test: MgcRacGAP GTPase-activating activity inhibitors, confirmation, biochemical, ADP Hunter fluorescence, primary and confirmatory (AID 624330); assay type: functional
T1 sequence (Q9H0H5 whole entry): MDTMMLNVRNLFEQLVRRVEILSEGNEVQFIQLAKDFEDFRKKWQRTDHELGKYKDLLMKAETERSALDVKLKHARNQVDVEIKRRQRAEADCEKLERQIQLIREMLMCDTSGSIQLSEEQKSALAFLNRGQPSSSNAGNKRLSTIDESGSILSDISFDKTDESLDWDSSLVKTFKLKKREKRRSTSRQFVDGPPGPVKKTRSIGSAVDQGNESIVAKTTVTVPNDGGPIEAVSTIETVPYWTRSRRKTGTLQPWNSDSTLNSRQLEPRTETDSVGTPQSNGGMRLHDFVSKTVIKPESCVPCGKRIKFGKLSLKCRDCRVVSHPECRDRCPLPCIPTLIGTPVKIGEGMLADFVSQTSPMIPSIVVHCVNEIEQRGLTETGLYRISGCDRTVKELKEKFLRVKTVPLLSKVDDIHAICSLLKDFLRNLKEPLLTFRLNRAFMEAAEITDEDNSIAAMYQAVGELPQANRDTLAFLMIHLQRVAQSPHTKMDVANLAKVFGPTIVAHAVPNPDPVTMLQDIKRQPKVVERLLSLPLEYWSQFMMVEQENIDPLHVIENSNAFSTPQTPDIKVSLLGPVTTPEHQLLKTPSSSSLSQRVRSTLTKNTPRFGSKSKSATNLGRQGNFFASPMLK

[7] = inhibitors of HIV Env-driven cell fusion, dose response, cherry-pick (AID 652057); assay type: functional, cell-based
[8] = inhibitors of clade B AD8 Env fusion, dose response, cell-based, cherry-pick (AID 652062); assay type: functional;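 also: luciferase signal from cell-cell fusion driven by HIV-1 clade B AD8 Env; potency is for inhibitors of fusion seen as a drop in luminescence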
[9] = ZM109 Env clade C HIV-1 fusion inhibitors, dose response, HeLa effector, CEM target cells, luciferase, cherry-pick (AID 652058); assay type: functional, cell-based
[10] = HepG2 cell cytotoxicity, dose response, cytotoxicity control for non-replicating M. tuberculosis project (AID 489018); assay type: functional; conditions: Mycobacterium tuberculosis
[11] = target: Induced myeloid leukemia cell differentiation protein Mcl-1 (Homo sapiens, UniProt Q07820); assay type: functional
[12] = system: Streptococcus sp. 'group A'; test: growth inhibition of control SK(-) GAS strain, dose response, counter-screen for streptokinase expression inhibitor project, luminescence, kanamycin, BacTiterGlo, confirmation (AID 1900); assay type: functional, organism-based
[13] = target: Eukaryotic translation initiation factor 4E (Mus musculus, UniProt P63073); test: eIF4E–eIF4G protein interaction inhibitors, dose response, biochemical, TR-FRET (AID 855); assay type: functional;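 also: potency for disrupting eIF4E binding to eIF4GI seen as loss of FRET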
H4 = test: Luminescence Cell-Based Dose Response HTS to Identify Activators of 5'UTR Stem-Loop Driven Prion Protein mRNA Translation in H4 Neuroglioblastoma Cells. [Related pubchem assays: 1829 (Project Summary), 1814 (Primary HTS)]; assay type: functional; conditions: Homo sapiens
Streptococcus = test: Group A Streptococcus viability loss, dose response, counter-screen for streptokinase expression inhibitor project, luminescence, BacTiterGlo (AID 1915); assay type: functional, organism-based;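 also: potency for reduction of bacterial viability or growth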
[14] = Luminescence Cell-Based Dose Response HTS to Identify Activators of Luciferase Translation or Activity in H4 […] Cells. [Related pubchem assays: 1829 (Project Summary), 1814 (Primary HTS)]; assay type: functional
[15] = Luminescence Cell-Based Dose Confirmation HTS to Identify Activators of 5'UTR Stem-Loop Driven Alpha-Synuclein mRNA Translation in H4 Neuroglioblastoma Cells. [Related pubchem assays: 1829 (Project Summary), 1814 (Primary HTS)]; assay type: functional
[16] = target: Matrix metalloproteinase-14 (Homo sapiens, UniProt P50281); test: Dose Response confirmation of uHTS hits for a small molecule inhibitors of MT1-MMP activation in a fluorescence assay set 2.; assay type: functional
[17] = HEK293 cell viability, dose response, counter-screen for EBV LMP1 inhibitor project, dry powder, set 2 (AID 624374); assay type: functional
[18] = target: Potassium channel subfamily K member 3 (Homo sapiens, UniProt O14649); test: TASK1 (KCNK3) potassium channel inhibitors, SAR follow-up, CHO cells, FluxOR thallium flux (AID 652212); assay type: functional
[19] = target: Potassium channel subfamily K member 9 (Homo sapiens, UniProt Q9NPC2); test: TASK3 (KCNK9) channel inhibitors, thallium flux, SAR follow-up, selectivity assay for TASK1 inhibitor project, cell-based, FluxOR thallium flux, concentration-response (AID 652211); assay type: functional;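 also: potency is for inhibitors of the channel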
A549 = test: A549 cell toxicity, dose response, cytotoxicity control, plate reader, cherry-pick samples (AID 687028); assay type: functional, cell-based; conditions: Homo sapiens

Eukaryotic translation initiation factor 4E, sequence (P63073 whole entry): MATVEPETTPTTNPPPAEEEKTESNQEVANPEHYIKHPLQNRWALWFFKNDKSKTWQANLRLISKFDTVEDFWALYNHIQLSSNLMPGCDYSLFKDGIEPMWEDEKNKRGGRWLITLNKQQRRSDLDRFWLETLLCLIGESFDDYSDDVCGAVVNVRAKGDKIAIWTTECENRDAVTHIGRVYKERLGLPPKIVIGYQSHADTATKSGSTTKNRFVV
Potassium channel subfamily K member 3, sequence (O14649 whole entry): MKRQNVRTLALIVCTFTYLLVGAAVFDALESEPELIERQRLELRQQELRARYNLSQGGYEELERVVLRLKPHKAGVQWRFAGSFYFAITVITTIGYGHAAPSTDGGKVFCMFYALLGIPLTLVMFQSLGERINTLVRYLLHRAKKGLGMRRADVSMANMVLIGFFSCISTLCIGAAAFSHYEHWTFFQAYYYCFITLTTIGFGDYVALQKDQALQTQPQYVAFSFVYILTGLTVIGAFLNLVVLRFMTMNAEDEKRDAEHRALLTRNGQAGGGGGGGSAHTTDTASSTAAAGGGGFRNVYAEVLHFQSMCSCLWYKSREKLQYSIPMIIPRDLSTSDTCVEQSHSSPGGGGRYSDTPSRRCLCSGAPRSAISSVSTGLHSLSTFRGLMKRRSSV
Potassium channel subfamily K member 9, sequence (Q9NPC2 whole entry): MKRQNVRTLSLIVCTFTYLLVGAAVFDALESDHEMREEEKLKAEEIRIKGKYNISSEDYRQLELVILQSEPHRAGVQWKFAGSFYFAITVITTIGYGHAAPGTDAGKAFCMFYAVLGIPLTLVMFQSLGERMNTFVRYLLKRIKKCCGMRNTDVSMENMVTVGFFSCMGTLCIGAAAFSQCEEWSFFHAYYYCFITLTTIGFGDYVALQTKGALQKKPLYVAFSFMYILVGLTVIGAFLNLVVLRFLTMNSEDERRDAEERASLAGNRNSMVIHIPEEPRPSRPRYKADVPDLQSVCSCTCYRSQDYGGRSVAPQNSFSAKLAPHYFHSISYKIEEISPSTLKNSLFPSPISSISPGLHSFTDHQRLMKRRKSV
Induced myeloid leukemia cell differentiation protein Mcl-1, sequence (Q07820 whole entry): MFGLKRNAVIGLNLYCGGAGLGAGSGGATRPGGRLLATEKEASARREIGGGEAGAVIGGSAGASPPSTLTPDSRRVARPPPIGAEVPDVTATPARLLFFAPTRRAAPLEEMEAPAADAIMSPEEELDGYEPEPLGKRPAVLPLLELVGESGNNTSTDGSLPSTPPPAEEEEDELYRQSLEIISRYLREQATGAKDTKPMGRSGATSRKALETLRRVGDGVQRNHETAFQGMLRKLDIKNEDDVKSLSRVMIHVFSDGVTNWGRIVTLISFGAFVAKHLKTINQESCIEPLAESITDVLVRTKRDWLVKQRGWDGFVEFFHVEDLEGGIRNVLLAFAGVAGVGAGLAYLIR

Question: Which CC50 [1] does the source give for `CC(NCCCOc1cccc2ccccc12)c1ccccc1` (stereo not drawn) here?
Answer: The CC50 was 23.1 µM (active).

Question: What about the AC50 [2] of the same compound?
Answer: The AC50 was 17.4 µM (active).

Question: And the IC50 (cells)?
Answer: Its IC50 is 35.9 µM (active).

Question: And the AC50 [3]?
Answer: The AC50 was 6.96 µM (active).

Question: And the CC50 [4]?
Answer: Its CC50 is 36.2 µM (active).

Question: What about the CC50 [5] of the same compound?
Answer: The CC50 was 13.5 µM (active).

Question: And the IC50 [6]?
Answer: Its IC50 is 161 µM (active).

Question: And the AC50 [7]?
Answer: Its AC50 is 2.23 µM (active).

Question: And the AC50 [8]?
Answer: Its AC50 is 19.2 µM (active).

Question: And the AC50 [9]?
Answer: The AC50 was 14.6 µM (active).

Question: What about the CC50 [10] of the same compound?
Answer: Its CC50 is > 20 µM (active).

Question: Which IC50 [11] does the source give for `COc1ccc2nc(N3C(=O)C(c4c(O)[nH]c5ccccc45)=NC3=S)sc2c1` here?
Answer: Its IC50 is > 54 µM (active).

Question: What about the EC50 [12] of the same compound?
Answer: The EC50 was 0.744 µM (active).

Question: And the IC50 [13]?
Answer: Its IC50 is > 64 µM (inactive).

Question: What about the EC50 (H4) of the same compound?
Answer: The EC50 was 101 µM (active).

Question: What about the EC50 (Streptococcus) of the same compound?
Answer: Its EC50 is 2.41 µM (active).

Question: And the EC50 [14]?
Answer: Its EC50 is 34.5 µM (active).

Question: What about the EC50 [15] of the same compound?
Answer: The EC50 was > 120 µM (not active).

Question: And the IC50 [16]?
Answer: The IC50 was 37.6 µM (inactive).

Question: For `CN(C)c1ccc2c(c1)[C@@H]1C[C@H](CC(=O)NCc3ccc(Oc4ccccc4)cc3)O[C@@H](CO)[C@@H]1O2`, which AbsAC35 [17] is on record?
Answer: The AbsAC35 was 41.71 µM.

Question: For `CCOc1ccccc1NC(=O)c1cccc(NC(=O)c2cccc(C)c2)c1`, which IC50 [18] is on record?
Answer: The IC50 was 0.017 µM (active).

Question: And the IC50 [19]?
Answer: The IC50 was 0.29 µM (active).

Question: With `COc1ccc(-c2ccc3c(c2)[C@@H]2[C@@H](CCN2C(=O)C2CCOCC2)[C@@H](CO)N3C)cc1` as the compound, how does the AC50 (A549) read?
Answer: Its AC50 is 27.8 µM (active).
